According to patent US20220280584A1, “CROTON LECHLERI COMPOSITIONS FOR USE IN TREATING BLEEDING, WOUNDS AND INFECTIONS” (priority 2019, published 2022):
Values after ≈ are worked out from the molar mass of the structure shown.

Experiments:
the cells = settings: Chen, Planta Med. 60 (1994), cited from earlier work; for Effect on cell proliferation: compounds obtained through extraction; for Wound healing properties / healing effects: Ecuadorian sap
[1] = test system: MSSA and MRSA (Staphylococcus aureus); assay: MIC, in vitro assay of MSSA and MRSA (2-fold microdilution); assay type: cell-based; settings: for MIC: Staphylococcus aureus
[2] = test system: MSSA and MRSA (Staphylococcus aureus); assay: MBC, in vitro assay of MSSA and MRSA; assay type: cell-based
S. pyogenes = assay: MIC against S. pyogenes (Erythromycin and Tetracycline resistant strains); assay type: cell-based; settings: Streptococcus pyogenes, antibiotic screening
Description: Tables 14 and 15 show an assay whose setup is same as what was used for screening S. aureus and P. aeruginosa (i.e. 2-fold microdilution). The 20 strains of S. pyogenes assayed were selected from the two rounds of antibiotic screening to identify Erythromycin and Tetracycline resistant strains. […] For this feasibility study, AB-101 Lot 1 and Lot 2 was used. P. aeruginosa ATCC 27853 was tested as a positive control for AB-101 activity.

Catechin
Effect on cell proliferation (the cells): little effect

COc1ccc2c(=O)oc3c(OC)cc(CCN(C)C)c4c(=O)oc1c2c34 [Taspine]
Wound healing properties / healing effects (the cells): little healing effects | Activity against MSSA and MRSA (MIC) ([1]; purified extract of taspine, highest concentration tested 50% relative to AB-101 = 10 μg/mL): does not have activity | MIC (% relative to amount in AB-101) ([1]; strain ATCC 29213, QC control, 50% = 10 μg/mL taspine): >50 % relative to amount in AB-101 | Activity against MSSA and MRSA (MBC) ([2]; purified extract of taspine): does not have activity | MBC (% relative to amount in AB-101) ([2]; strain ATCC 29213, QC control): >50 % relative to amount in AB-101

C/C(=C\C(=O)OCCCCCCCCC(=O)O)C[C@@H]1OC[C@H](C[C@@H]2O[C@H]2[C@@H](C)[C@H](C)O)[C@@H](O)[C@H]1O [Mupirocin]
MIC ([1]; strain 1674606, MupirocinR, MSSA): > 256 µg/mL | MIC ([1]; strain 1674607, MupirocinR, MRSA): > 256 µg/mL | MIC ([1]; strain CDC 227, MupirocinS, MRSA): 0.25 to 0.5 µg/mL (≈ 0.499 to 0.999 µM) | MIC ([1]; strain CDC 462, MupirocinS, MSSA): ≤ 0.25 µg/mL | MIC ([1]; strain CDC 464, MupirocinS, MSSA): ≤ 0.25 µg/mL | MIC ([1]; strain CDC 484, MupirocinS, MSSA): ≤ 0.25 µg/mL | MIC ([1]; strain CDC 485, MupirocinS, MSSA): ≤ 0.25 µg/mL

COc1ccc([C@H]2Oc3c(OC)cc(CCCO)cc3[C@@H]2CO)cc1OC [dimethylcedrusin]
Wound healing properties / healing effects (the cells): little healing effects

Oc1cc(O)c2c(c1)O[C@H](c1cc(O)c(O)c(O)c1)[C@H](O)C2 [Epigallocatechin]
Effect on cell proliferation (the cells): slightly stimulating

Oc1cc(O)c2c(c1)O[C@H](c1cc(O)c(O)c(O)c1)[C@@H](O)C2 [Gallocatechin]
Effect on cell proliferation (the cells): slightly stimulating

CN[C@H](CC(C)C)C(=O)N[C@H]1C(=O)N[C@@H](CC(N)=O)C(=O)N[C@H]2C(=O)N[C@H]3C(=O)N[C@H](C(=O)N[C@H](C(=O)O)c4cc(O)cc(O)c4-c4cc3ccc4O)[C@H](O)c3ccc(c(Cl)c3)Oc3cc2cc(c3O[C@@H]2O[C@H](CO)[C@@H](O)[C@H](O)[C@H]2O[C@H]2C[C@](C)(N)[C@H](O)[C@H](C)O2)Oc2ccc(cc2Cl)[C@H]1O [Vancomycin]
MIC (S. pyogenes; S. pyogenes strain 1744264): 0.5 µg/mL (≈ 0.345 µM) | MIC (S. pyogenes; S. pyogenes strain 1744265): 8 µg/mL (≈ 5.52 µM) | MIC (S. pyogenes; S. pyogenes strain 1744271): 0.5 µg/mL (≈ 0.345 µM) | MIC (S. pyogenes; S. pyogenes strain 1744272): 1 µg/mL (≈ 0.69 µM) | MIC (S. pyogenes; S. pyogenes strain 1744275): 0.25 to 0.5 µg/mL (≈ 0.173 to 0.345 µM) | MIC (S. pyogenes; S. pyogenes strain 1744277): 4 µg/mL (≈ 2.76 µM) | MIC (S. pyogenes; S. pyogenes strain 1744285): 0.5 µg/mL (≈ 0.345 µM) | MIC (S. pyogenes; S. pyogenes strain 2065754): 0.5 µg/mL (≈ 0.345 µM) | MIC (S. pyogenes; S. pyogenes strain 2065755): 0.5 µg/mL (≈ 0.345 µM) | MIC (S. pyogenes; S. pyogenes strain 2065756): 0.5 µg/mL (≈ 0.345 µM) | MIC (S. pyogenes; S. pyogenes strain 2065757): 0.5 µg/mL (≈ 0.345 µM) | MIC (S. pyogenes; S. pyogenes strain 2065759): 0.5 µg/mL (≈ 0.345 µM) | MIC (S. pyogenes; S. pyogenes strain 2065760): 0.5 µg/mL (≈ 0.345 µM) | MIC (S. pyogenes; S. pyogenes strain 2065761): 0.5 µg/mL (≈ 0.345 µM) | MIC (S. pyogenes; S. pyogenes strain 2065762): 0.5 µg/mL (≈ 0.345 µM) | MIC (S. pyogenes; S. pyogenes strain 2065763): 0.5 µg/mL (≈ 0.345 µM) | MIC (S. pyogenes; S. pyogenes strain 2065765): 2 to 4 µg/mL (≈ 1.38 to 2.76 µM) | MIC (S. pyogenes; S. pyogenes strain 20658748): 0.25 to 0.5 µg/mL (≈ 0.173 to 0.345 µM) | MIC (S. pyogenes; S. pyogenes strain 20658749): 0.5 µg/mL (≈ 0.345 µM) | MIC (S. pyogenes; S. pyogenes strain 20658750): 0.5 µg/mL (≈ 0.345 µM)
